The text below walks through data of ChEMBL document CHEMBL1759992.

For test [1], the system named is Rattus norvegicus. The test can be described thus: Inhibition of lethal factor-induced toxicity in Fischer 344 rat assessed as enhancement of survival rate at 2.5 mg/kg, iv followed by administration of 10 ug lethal toxin after 20 to 30 mins of compound dosing. Format: functional, organism-based. More on the design: dose 2.5 mg/kg.
For test [2], the system named is Rattus norvegicus. The test can be described thus: Inhibition of lethal factor-induced toxicity in Fischer 344 rat assessed as enhancement of survival rate at 5 mg/kg, iv followed by administration of 10 ug lethal toxin after 20 to 30 mins of compound dosing. The format is functional, organism-based. More on the design: dose 5 mg/kg.

Structures are written as SMILES. Activity calls are given as the source filed them. No cut-off for these calls is given here.

For the compound `CO[C@H](C[C@H](CCCCNCc1ccc(F)cc1)C(=O)NO)c1ccc(F)cc1`, the Survival result in the test on Rattus norvegicus [1] was “inactive”. Also, in the test on Rattus norvegicus [2], the Survival result is “Active”. `Cc1cc(N[C@H](CCCCNCc2ccc(F)cc2)C(=O)NO)cc(C)c1F`: the Survival result in the test on Rattus norvegicus [1] and in the test on Rattus norvegicus [2] was “Active” each time.

For the compound `Cc1cc(O[C@H](CCCCCNCCc2ccc(F)cc2)C(=O)NO)cc(C)c1F`, in the test with Rattus norvegicus [2], the Survival result was “inactive”. For `O=C(NO)[C@@H](CCCCNCc1ccc(F)cc1)Nc1ccc(F)c(Cl)c1`, the Survival entry with Rattus norvegicus [2] was “inactive”. For `Cc1cc(CNCCCC[C@@H](Nc2cc(C)c(F)c(C)c2)C(=O)NO)ccc1F`, in the test with Rattus norvegicus [1], the Survival result is “inactive”. Further, the Survival result in the test with Rattus norvegicus [2] was “Active”. In the case of `CO[C@H](C[C@H](CCCCCNCCc1ccc(F)cc1)C(=O)NO)c1ccc(F)cc1`, the Survival result in the test with Rattus norvegicus [2] was “inactive”. On to `Cc1cc(CNCCCC[C@@H](Nc2ccc(F)c(C)c2)C(=O)NO)ccc1F`, for which, in the test with Rattus norvegicus [2], the Survival result was “inactive”. Same read-out and setting: then `Cc1cc(O[C@H](CCCCCNCc2ccc(F)cc2)C(=O)NO)cc(C)c1F`, with “inactive”; and `Cc1cc(CNCCCC[C@@H](Oc2ccc(F)c(C)c2)C(=O)NO)ccc1F`, with “inactive”. Same read-out and setting: then `Cc1cc(O[C@H](CCCCNCc2ccc(F)cc2)C(=O)NO)cc(C)c1F`, with “inactive”.

Take `CO[C@H](C[C@H](CCCCCNCc1ccc(F)cc1)C(=O)NO)c1ccc(F)cc1`: the Survival result in the test on Rattus norvegicus [2] was “inactive”.
